Each structure is given as a SMILES string. Structures can show the parent of a compound that is named as a salt.

In the case of `NC(N)=Nc1nc(-n2c(Br)ccc2Br)c2cc(Cl)ccc2n1` (as salt: HCl) [Example 196], the melting point (commonly the temperature, or range, at which the solid turns liquid) was 302 °C.
For `Cc1noc(C)c1-c1nc(N=C(N)N)nc2ccc(Cl)cc12` (as salt: HCl) [Example 215] the value was 317 to 320 °C.
Then `COc1ncc(-c2nc(N=C(N)N)nc3ccc(Cl)cc23)c(OC)n1` (as salt: HCl) [Example 235], with 270 to 275 °C.

The record behind these values is US20050113396A1, “2-Guanidino-4-heterocyclylquinazolines” (priority 2001, published 2005).
